PMC6172251, “Two Engineered OBPs with opposite temperature-dependent affinities towards 1-aminoanthracene” (Scientific Reports, 2018)

Columns and labels:
[1] = molecular target: T1, truncated OBP (tOBP), engineered from OBP-I (Sus scrofa, UniProt P81245, F44A/F66A); assay: direct fluorescence titration with 1-AMA (ex […] nm, em […] nm), […] °C; Kd […] at […] °C; format: binding
T1 construct: OBP-I with deletion of the first 16 residues of the N-terminal and F44A and F66A; His-tag at N-terminal
T1 sequence (P81245 17-157 F44A/F66A): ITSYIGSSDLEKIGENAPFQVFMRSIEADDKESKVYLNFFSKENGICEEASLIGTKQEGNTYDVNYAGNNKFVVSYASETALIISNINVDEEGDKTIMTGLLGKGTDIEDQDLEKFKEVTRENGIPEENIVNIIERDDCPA

[2] = molecular target: T2, OBP::GQ20::SP-DS3, engineered from OBP-I (Sus scrofa, UniProt P81245); assay: as above; format: binding
T2 construct: fusion of OBP-I with a linker of 20 glycine-glutamine repeats (GQ20) and the anchor peptide SP-DS3 ([…]); His-tag at N-terminal
T2 sequence (P81245 1-157): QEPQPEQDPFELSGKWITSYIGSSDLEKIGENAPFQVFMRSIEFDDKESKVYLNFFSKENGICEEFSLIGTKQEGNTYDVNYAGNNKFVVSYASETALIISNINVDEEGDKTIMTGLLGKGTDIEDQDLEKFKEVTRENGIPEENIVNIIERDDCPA

Molecule `Nc1cccc2cc3ccccc3cc12` [1-AMA, 1-aminoanthracene] has a Kd [1] of 450 nM and a Kd [2] of 580 nM.
